From patent US11366121B2, “Specific GNAI:GIV interaction screening assays, methods and compositions” (The Regents of the University of California, priority 2017, dated 2022)

Legend:
[1] = biological target: GIV:Gαi3 interaction (Homo sapiens, UniProt P08754); experiment: fluorescence polarization (FP) assay monitoring the GIV:Gαi3 interaction, dose response curves; type: binding; settings: FIG. 11D
Procedure: (§1) FIGS. 11A-11E. A HTS-compatible fluorescence polarization (FP) assay to monitor the GIV:Gαi3 interaction.
(§2) FIG. 14. Kd's determined from fluorescence polarization assays with FITC peptides and hGαi3.
(§3) A pilot screen of the LOPAC1280 library (collection of known bioactive compounds) was conducted and identified lead compounds with inhibitory activity (FIG. 11A). A virtual ligand screen (VLS) of the same library (LOPAC1280) was conducted using in silico docking methods (FIG. 11B). The results from both screens were compared. […] From the virtual screen 7 ‘hits’ (FIG. 11B) were identified. Importantly, 2 of the virtual screen hits matched the results from the FP assay and a third was validated as a GIV:Gαi inhibitor. Compounds were validated by dose response curves (FIG. 11D). […] None of the other 4 hits predicted by the VLS inhibited binding.

[2] = biological target: GIV:Gαi (Homo sapiens, UniProt P08754); experiment: GST-pulldown assay confirming hits; type: binding; settings: FIG. 11E
Sequence of GIV:Gαi (P08754 whole entry): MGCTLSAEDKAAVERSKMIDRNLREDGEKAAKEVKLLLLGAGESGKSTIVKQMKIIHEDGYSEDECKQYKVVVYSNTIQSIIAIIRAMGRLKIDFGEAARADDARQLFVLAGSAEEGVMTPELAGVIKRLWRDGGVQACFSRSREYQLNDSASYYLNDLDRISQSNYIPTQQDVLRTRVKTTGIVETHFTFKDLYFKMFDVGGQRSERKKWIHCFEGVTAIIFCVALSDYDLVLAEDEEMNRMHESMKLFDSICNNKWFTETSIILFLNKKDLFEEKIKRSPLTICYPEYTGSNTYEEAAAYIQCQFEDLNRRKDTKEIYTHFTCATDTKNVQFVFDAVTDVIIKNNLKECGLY
Procedure: as §3

[3] = biological target: GIV:Gαi3 (hGαi3 with FITC-labelled GIV C-terminal peptide KTGSPGSEVVTLQQFLEESNKLTSVQIKSSS, SEQ ID NO: 1) (Homo sapiens, UniProt P08754); experiment: Inhibition of GIV:Gαi3 interaction by fluorescence polarization (FITC-GIV peptide binding to hGαi3); confirmed hits, FIG. 10
Sequence of UniProt P08754 (P08754 whole entry): as the sequence (P08754 whole entry) above
Description: FIG. 10. Further analysis of confirmed hits validate the assay to identify inhibitors of the target.
as §1, §2
The present invention provides a research tool assay for identifying a specific modulator of GNAI, comprising: (a) combining a drug candidate with GNAI and a C-terminal GIV peptide and determining if the drug candidate inhibits GNAI interaction with the C-terminal GIV peptide; and (b) combining the drug candidate with GNAI and a DAPLE peptide and determining if the drug candidate inhibits GNAI interaction with DAPLE peptide.
In embodiments, the C-terminal GIV peptide comprises the amino acid sequence of SEQ ID NO: 1. In embodiments, the DAPLE peptide comprises the amino acid sequence of SEQ ID NO:2.
In embodiments, the determining steps are detected by fluorescent polarization.
In embodiments, the invention provides an assay and method for screening for drug candidates which act as specific inhibitors against the GNAI:GIV interface. […]
As for the first step in the assay, this small region of 31 aa GIV peptide: […] (SEQ ID NO: 1) was arrived at after careful biochemistry determined that anything less than this is less efficient in binding or activation the G protein, GNAI. […]

Sequence of GIV:Gαi3 interaction (P08754 whole entry): as the sequence (P08754 whole entry) above

Row | Structure (SMILES) | IC50 [1] [µM] | confirmation as hit by GST-pulldown [2] | Ki [3] [µM]
1 | O=C(O)C1=CC(=C(c2ccc(O)c(C(=O)O)c2)c2ccc(O)c(C(=O)O)c2)C=CC1=O [ATA, aurintricarboxylic acid] | ~5 |  | 
2 | O=C(Nc1cccc(C(=O)Nc2ccc(S(=O)(=O)[O-])c3cc(S(=O)(=O)[O-])cc(S(=O)(=O)[O-])c23)c1)Nc1cccc(C(=O)Nc2ccc(S(=O)(=O)[O-])c3cc(S(=O)(=O)[O-])cc(S(=O)(=O)[O-])c23)c1.[Na+].[Na+].[Na+].[Na+].[Na+].[Na+] [NF023, 8,8′-[carbonylbis(imino-3,1-phenylenecarbonylimino)]bis(1,3,5-naphthalene-trisulfonic acid) hexasodium salt] | ~5 | true hits | 
3 | Cc1ccc(C(=O)Nc2ccc(S(=O)(=O)O)c3cc(S(=O)(=O)O)cc(S(=O)(=O)O)c23)cc1NC(=O)c1cccc(NC(=O)Nc2cccc(C(=O)Nc3cc(C(=O)Nc4ccc(S(=O)(=O)O)c5cc(S(=O)(=O)O)cc(S(=O)(=O)O)c45)ccc3C)c2)c1 [Suramin, suramin] |  |  | 49

Next, values leading:

Row | IC50 [1] [µM] | confirmation as hit by GST-pulldown [2] | Ki [3] [µM] | Structure (SMILES)
4 | ~805 |  |  | Cc1ccc(C(=O)Nc2ccc(S(=O)(=O)O)c3cc(S(=O)(=O)O)cc(S(=O)(=O)O)c23)cc1NC(=O)c1cccc(NC(=O)Nc2cccc(C(=O)Nc3cc(C(=O)Nc4ccc(S(=O)(=O)O)c5cc(S(=O)(=O)O)cc(S(=O)(=O)O)c45)ccc3C)c2)c1 [suramin]
5 |  | false positive |  | CC[C@@]1(O)C(=O)OCc2c1cc1n(c2=O)Cc2cc3c(CN(C)C)c(O)ccc3nc2-1 [topotecan]
